Results taken from patent US7671055B2, “Insecticidal 3-(dihaloalkenyl) phenyl derivatives” (FMC Corporation, priority 2004, dated 2010).

System: tobacco budworm (Heliothis virescens [Fabricius])
Experiment: surface-treated diet test against tobacco budworm
Type: in vivo
Conditions: 0.25 millimolar on surface of diet; second instar larvae; five-day exposure; inhibition of insect weight relative to untreated controls
Method: Candidate insecticides were evaluated for activity against the tobacco budworm (Heliothis virescens [Fabricius]) in a surface-treated diet test.
In this test one mL of molten (65-70° C.) wheat germ-based artificial diet was pipetted into each well of a four by six (24 well) multi-well plate (ID#430345-15—[…].×17.6 mm deep; Corning Costar Corp., One Alewife Center, Cambridge, Mass. 02140). The diet was allowed to cool to ambient temperature before treatment with candidate insecticide.
For a determination of insecticidal activity, solutions of the candidate insecticides were prepared for testing using a Packard 204DT Multiprobe® Robotic System (Packard Instrument Company, 800 Research Parkway, Meriden, Conn. 06450), in which the robot first diluted a standard 50 millimolar DMSO solution of candidate insecticide with a 1:1 water/acetone solution (V/V) in a ratio of 1:7 stock solution to water/acetone. The robot subsequently pipetted 40 microliters of the so-prepared solution onto the surface of the diet in each of three wells in the 24 multi-well plate. The process was repeated with solutions of seven other candidate insecticides. […]
After the five-day exposure period insecticidal activity for each rate of application of candidate insecticide was assessed as percent inhibition of insect weight relative to the weight of insects from untreated controls. […]

Row | Structure (SMILES) | Percent Growth Inhibition
1 | CC1(C)Cc2cccc(OCCCCOc3cc(OCC=C(Cl)Cl)cc(Cl)c3Cl)c2O1 [Compound 2, 7-{4-[5-(3,3-dichloroprop-2-enyloxy)-2,3-dichlorophenoxy]butoxy}-2,2-dimethyl-2,3-dihydro-benzo[b]furan] | 100%
2 | FC(F)(F)c1ccc(N2CCN(c3cc(OCC=C(Cl)Cl)cc(Cl)c3Br)CC2)nc1 [Compound 19, 5-(3,3-dichloroprop-2-enyloxy)-2-bromo-3-chloro-1-{4-[5-(trifluoromethyl)(2-pyridyl)]piperazinyl}-benzene] | 100%
